Source: patent US10532985B2, “Heterocycle and carbocycle derivatives having TRKA inhibitory activity” (Shionogi & Co., Ltd., priority 2014, dated 2020)
Like-named read-outs stand apart in the source and are kept apart here.

Target: T1, human TrkA (Homo sapiens, UniProt P04629)
T1 construct: purchased Lifetechnologies PV3144
Assay: Test Example 2: Human TrkA Inhibition Assay
Type: biochemical
Details: Test Example 2
Experimental: After the incubation for 90 min at room temperature, ten μL of termination buffer (100 mmol/L HEPES, 40 mmol/L ethylenediaminetetraacetic acid (EDTA), 10 mmol/L magnesium chloride, 0.003 vol % Brij-35, 0.004 vol % Tween20, 1 mmol/L DTT and 0.16 vol % Coating Reagent 3) was added in each well to stop the enzyme reaction. Fluorescent intensities (FI) of phosphorylated and non-phosphorylated fluorescent substrates were measured by LabChip EZReader II (Caliper LifeSciences, Inc.) and conversion ratio (CR) was calculated by the following formula-1. The CR in the well applied with DMSO alone was used as a negative control and the CR in the well without applying TrkA was used as a positive control. The inhibitory effect of each compound on TrkA phosphorylation was calculated by the following formula-2. CR (%)=(FI of phosphorylated substrate/(FI of phosphorylated substrate+FI of non-phosphorylated substrate))×100 (Formula-1) Inhibitory effect on TrkA phosphorylation (%)=(1−(CR in compound treated well−CR in positive control)/(CR in negative control−CR in positive control))×100. (Formula-2)

[1] = human TrkA inhibition, class symbols A/B/C, read-out: IC50_nM
[2] = human TrkA 2.5 nmol/L, ATP 500 μmol/L, 90 min at room temperature, read-out: TrkA inhibitory activity IC50

T1 sequence (P04629 33-796): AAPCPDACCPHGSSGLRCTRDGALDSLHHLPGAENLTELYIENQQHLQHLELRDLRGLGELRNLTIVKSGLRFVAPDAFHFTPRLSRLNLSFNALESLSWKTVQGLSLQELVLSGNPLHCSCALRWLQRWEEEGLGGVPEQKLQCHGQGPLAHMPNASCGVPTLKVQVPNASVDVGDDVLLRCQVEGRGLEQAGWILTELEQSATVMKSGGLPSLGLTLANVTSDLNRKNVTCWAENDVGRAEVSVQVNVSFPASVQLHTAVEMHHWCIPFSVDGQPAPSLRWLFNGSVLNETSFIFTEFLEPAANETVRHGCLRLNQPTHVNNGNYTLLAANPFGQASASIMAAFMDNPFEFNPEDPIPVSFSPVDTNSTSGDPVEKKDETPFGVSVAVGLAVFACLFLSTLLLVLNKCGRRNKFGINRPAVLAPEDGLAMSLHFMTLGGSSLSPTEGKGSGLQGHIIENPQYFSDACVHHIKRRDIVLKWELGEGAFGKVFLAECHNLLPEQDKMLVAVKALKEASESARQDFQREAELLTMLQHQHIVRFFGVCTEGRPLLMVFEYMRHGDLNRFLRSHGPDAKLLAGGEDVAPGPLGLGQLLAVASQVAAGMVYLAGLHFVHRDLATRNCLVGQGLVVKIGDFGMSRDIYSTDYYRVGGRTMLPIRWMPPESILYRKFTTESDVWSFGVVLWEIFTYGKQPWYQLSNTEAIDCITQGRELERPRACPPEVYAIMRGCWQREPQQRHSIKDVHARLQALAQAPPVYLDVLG

Row | SMILES | IC50 [1] [nM] | IC50 [2] [nM]
1 | COCC(CCO)N1C[C@@H](NC(=O)Nc2c(C)c(-c3cnn(C)c3)nn2-c2ccccc2)[C@H](c2ccc(F)c(F)c2)C1 (stereo partly drawn) [Compound I-105] | < 100 | 
2 | COCC(CN1CC(F)(F)C1)N1C[C@@H](NC(=O)Nc2c(C)c(-c3cnn(C)c3)nn2-c2ccccc2)[C@H](c2ccc(F)c(F)c2)C1 (stereo partly drawn) [Compound I-106] |  | 79
3 | Cc1c(-c2cnn(C)c2)nn(-c2ccccc2)c1NC(=O)N[C@@H]1CN(C(CO)c2ccco2)C[C@H]1c1ccc(F)c(F)c1 (stereo partly drawn) [Compound I-108] | < 100 | 
4 | COCC(C[n+]1ccccc1)N1C[C@@H](NC(=O)Nc2c(C)c(-c3cnn(C)c3)nn2-c2ccccc2)[C@H](c2ccc(F)c(F)c2)C1 (stereo partly drawn) [Compound I-110] | < 100 | 
5 | COCC(CNC(N)=O)N1C[C@@H](NC(=O)Nc2c(C)c(-c3cnn(C)c3)nn2-c2ccccc2)[C@H](c2ccc(F)c(F)c2)C1 (stereo partly drawn) [Compound I-111] | < 100 | 
6 | COCC(CNC(C)=O)N1C[C@@H](NC(=O)Nc2c(C)c(-c3cnn(C)c3)nn2-c2ccccc2)[C@H](c2ccc(F)c(F)c2)C1 (stereo partly drawn) [Compound I-112] | 100 to 1000 | 
7 | COCC(CNOC)N1C[C@@H](NC(=O)Nc2c(C)c(-c3cnn(C)c3)nn2-c2ccccc2)[C@H](c2ccc(F)c(F)c2)C1 (stereo partly drawn) [Compound I-113] | 100 to 1000 | 
8 | COC1CCC1N1C[C@@H](NC(=O)Nc2c(C)c(-c3cnn(C)c3)nn2-c2ccccc2)[C@H](c2ccc(F)c(F)c2)C1 (stereo partly drawn) [Compound I-114] |  | 120
9 | COCC(CN(C)C)N1C[C@@H](NC(=O)Nc2c(C)c(-c3cnn(C)c3)nn2-c2ccccc2)[C@H](c2ccc(F)c(F)c2)C1 (stereo partly drawn) [Compound I-115] | 100 to 1000 | 
10 | COCC(C(N)=O)N1C[C@@H](NC(=O)Nc2c(C)c(-c3cnn(C)c3)nn2-c2ccccc2)[C@H](c2ccc(F)c(F)c2)C1 (stereo partly drawn) [Compound I-116] | 100 to 1000 | 
11 | COCC(CC(=O)OC)N1C[C@@H](NC(=O)Nc2c(C)c(-c3cnn(C)c3)nn2-c2ccccc2)[C@H](c2ccc(F)c(F)c2)C1 (stereo partly drawn) [Compound I-117] | 100 to 1000 | 
12 | Cc1c(-c2cnn(C)c2)nn(-c2ccccc2)c1NC(=O)N[C@@H]1CN(Cc2ccoc2)C[C@H]1c1ccc(F)c(F)c1 [Compound I-118] | 100 to 1000 | 
13 | COCC(CN1CCC1)N1C[C@@H](NC(=O)Nc2c(C)c(-c3cnn(C)c3)nn2-c2ccccc2)[C@H](c2ccc(F)c(F)c2)C1 (stereo partly drawn) [Compound I-119] | 100 to 1000 | 
14 | CCON=C1C[C@@H](NC(=O)Nc2c(C)c(-c3cnn(C)c3)nn2-c2ccccc2)[C@H](c2ccccc2)C1 [Compound I-120] | 100 to 1000 | 
15 | COCCC1C[C@H](NC(=O)Nc2c(C)c(-c3cnn(C)c3)nn2-c2ccccc2)[C@@H](c2ccccc2)C1 (stereo partly drawn) [Compound I-123] | 100 to 1000 | 
16 | CCOC(=O)CC1C[C@@H](NC(=O)Nc2c(C)c(-c3cnn(C)c3)nn2-c2ccccc2)[C@H](c2ccccc2)C1 (stereo partly drawn) [Compound I-124] | 100 to 1000 | 
17 | Cc1c(-c2cnn(C)c2)nn(-c2ccccc2)c1NC(=O)N[C@@H]1CN(C2CCC2)C[C@H]1c1ccc(F)c(F)c1 [Compound I-125] | 100 to 1000 | 
18 | CCOC(=O)C=C1C[C@@H](NC(=O)Nc2c(C)c(-c3cnn(C)c3)nn2-c2ccccc2)[C@H](c2ccccc2)C1 [Compound I-126] | 100 to 1000 | 
19 | COCC(Cn1ccnc1)N1C[C@@H](NC(=O)Nc2c(C)c(-c3cnn(C)c3)nn2-c2ccccc2)[C@H](c2ccc(F)c(F)c2)C1 (stereo partly drawn) [Compound I-127] | 100 to 1000 | 
20 | COCCN1C[C@@H](NC(=NO)Nc2c(C)c(-c3cnn(C)c3)nn2-c2ccccc2)[C@H](c2ccccc2)C1 [Compound I-129] |  | 440
21 | COCC(CSC)N1C[C@@H](NC(=O)Nc2c(C)c(-c3cnn(C)c3)nn2-c2ccccc2)[C@H](c2ccc(F)c(F)c2)C1 (stereo partly drawn) [Compound I-130] |  | 460

Row | SMILES | IC50 [1] [nM] | IC50 [2] [nM]
22 | COCC(CN)N1C[C@@H](NC(=O)Nc2c(C)c(-c3cnn(C)c3)nn2-c2ccccc2)[C@H](c2ccc(F)c(F)c2)C1 (stereo partly drawn) [Compound I-131] | 100 to 1000 | 
23 | COCCC1(C)C[C@@H](NC(=O)Nc2c(C)c(-c3cnn(C)c3)nn2-c2ccccc2)[C@H](c2ccccc2)C1 (stereo partly drawn) [Compound I-132] |  | 480
24 | COCC(C(N)=O)N1C[C@@H](NC(=O)Nc2c(C)c(-c3cnn(C)c3)nn2-c2ccccc2)[C@H](c2ccc(F)c(F)c2)C1 (stereo partly drawn) [Compound I-133] | 100 to 1000 | 
25 | CNC(=O)C(COC)N1C[C@@H](NC(=O)Nc2c(C)c(-c3cnn(C)c3)nn2-c2ccccc2)[C@H](c2ccc(F)c(F)c2)C1 (stereo partly drawn) [Compound I-137] | 100 to 1000 | 
26 | CNCC(COC)N1C[C@@H](NC(=O)Nc2c(C)c(-c3cnn(C)c3)nn2-c2ccccc2)[C@H](c2ccc(F)c(F)c2)C1 (stereo partly drawn) [Compound I-138] | 100 to 1000 | 
27 | COCC(CNC(=O)OC)N1C[C@@H](NC(=O)Nc2c(C)c(-c3cnn(C)c3)nn2-c2ccccc2)[C@H](c2ccc(F)c(F)c2)C1 (stereo partly drawn) [Compound I-139] | 100 to 1000 | 
28 | COCC(CNS(C)(=O)=O)N1C[C@@H](NC(=O)Nc2c(C)c(-c3cnn(C)c3)nn2-c2ccccc2)[C@H](c2ccc(F)c(F)c2)C1 (stereo partly drawn) [Compound I-140] | 100 to 1000 | 
29 | COCCN1C[C@@H](NC(=NS(C)(=O)=O)Nc2c(C)c(-c3cnn(C)c3)nn2-c2ccccc2)[C@H](c2ccccc2)C1 [Compound I-141] |  | 1100
30 | Cc1c(-c2cnn(C)c2)nn(-c2ccccc2)c1NC(=O)N[C@@H]1CN(CC2(C)COC2)C[C@H]1c1ccc(F)c(F)c1 [Compound I-142] |  | 1300
31 | Cc1c(-c2cnn(C)c2)nn(-c2ccccc2)c1NC(=O)N[C@@H]1CN(C2CCCCC2)C[C@H]1c1ccc(F)c(F)c1 [Compound I-143] | > 1000 | 
32 | COCCN1C[C@@H](NC(=NOC)Nc2c(C)c(-c3cnn(C)c3)nn2-c2ccccc2)[C@H](c2ccccc2)C1 [Compound I-144] | > 1000 | 
33 | COCC(CNC(=N)N)N1C[C@@H](NC(=O)Nc2c(C)c(-c3cnn(C)c3)nn2-c2ccccc2)[C@H](c2ccc(F)c(F)c2)C1 (stereo partly drawn) [Compound I-145] | > 1000 | 
34 | COCCN1C[C@@H](NC(=C[N+](=O)[O-])Nc2c(C)c(-c3cnn(C)c3)nn2-c2ccccc2)[C@H](c2ccccc2)C1 [Compound I-146] |  | 1800
35 | Cc1c(-c2cnn(C)c2)nn(-c2ccccc2)c1NC(=O)N[C@@H]1CN(Cc2nccn2C2CC2)C[C@H]1c1ccc(F)c(F)c1 [Compound I-147] | > 1000 | 
36 | Cc1c(-c2cnn(C)c2)nn(-c2ccccc2)c1NC(=O)N[C@@H]1CN(c2nn[nH]n2)C[C@H]1c1ccc(F)c(F)c1 [Compound I-148] | > 1000 | 
37 | Cc1c(-c2cnn(C)c2)nn(-c2ccccc2)c1NC(=O)N[C@@H]1CN(c2nnn(C)n2)C[C@H]1c1ccc(F)c(F)c1 [Compound I-151] | > 1000 | 
38 | Cc1c(-c2cnn(C)c2)nn(-c2ccccc2)c1NC(=O)N[C@@H]1CN(C2COC(=O)C2)C[C@H]1c1ccc(F)c(F)c1 (stereo partly drawn) [Compound I-152] | > 1000 | 
39 | Cc1c(-c2cnn(C)c2)nn(-c2ccccc2)c1NC(=O)N[C@@H]1CC(C)(O)C[C@H]1c1ccccc1 (stereo partly drawn) [Compound I-154] | > 1000 | 
40 | COCC(C(=O)N(C)C)N1C[C@@H](NC(=O)Nc2c(C)c(-c3cnn(C)c3)nn2-c2ccccc2)[C@H](c2ccc(F)c(F)c2)C1 (stereo partly drawn) [Compound I-155] | > 1000 | 
41 | COCC(CN1CCOCC1)N1C[C@@H](NC(=O)Nc2c(C)c(-c3cnn(C)c3)nn2-c2ccccc2)[C@H](c2ccc(F)c(F)c2)C1 (stereo partly drawn) [Compound I-158] | > 1000 | 
42 | Cc1c(-c2cnn(C)c2)nn(-c2ccccc2)c1NC(=O)N[C@@H]1CN(Cc2nccn2C)C[C@H]1c1ccc(F)c(F)c1 [Compound I-159] | > 1000 | 
